According to patent publication US7354726B2, “Screening method” (Takeda Pharmaceutical Company Limited, priority 2001, dated 2008):

Assays:
[1] = target: T1, TGR5 (Homo sapiens, UniProt Q8TDU6); assay: cAMP production in TGR5 expressing CHO cells (CHO-TGR5); assay type: cell-based; set-up: expressed in transfected cells; details: CHO-TGR5, 20 minutes; potency in order TLCA, LCA, DCA, CDCA, CA
T1 sequence (Q8TDU6 1-330): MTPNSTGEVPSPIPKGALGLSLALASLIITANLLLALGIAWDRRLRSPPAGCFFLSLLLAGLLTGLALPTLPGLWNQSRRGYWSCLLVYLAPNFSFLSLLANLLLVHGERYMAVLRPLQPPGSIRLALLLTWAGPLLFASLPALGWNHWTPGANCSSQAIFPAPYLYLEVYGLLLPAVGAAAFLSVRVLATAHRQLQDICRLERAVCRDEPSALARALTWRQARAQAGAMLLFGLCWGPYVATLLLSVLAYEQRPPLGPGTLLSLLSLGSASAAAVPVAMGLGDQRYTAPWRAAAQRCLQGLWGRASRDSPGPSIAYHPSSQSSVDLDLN
Description: The cells were washed twice with assay buffer (DMEM supplemented with 0.1% bovine serum albumin and 0.2 mM 3-isobutyl-1-methylxanthine (IBMX)) and preincubated for 30 minutes. After washing the cells twice, a sample diluted with assay buffer was added to the cells, and the cells were incubated for 20 minutes. The culture supernatant was discarded, and by cAMP Screen System (ABI), cAMP production level was measured. […] The cAMP production level was represented by % for positive control as 100%.

[2] = target: T2, rabbit TGR5 (Oryctolagus cuniculus, UniProt Q862A8); assay: CRE-luciferase reporter assay in CHO-mock cells co-expressing Gi and rabbit TGR5; assay type: cell-based; details: 10 μM bile acid, rabbit TGR5, versus group with no bile acid (Base)
T2 construct: expressed in transfected cells; host or cells: CHO-mock cells, transient, with Gi plasmid and reporter plasmid
T2 sequence (Q862A8 1-330): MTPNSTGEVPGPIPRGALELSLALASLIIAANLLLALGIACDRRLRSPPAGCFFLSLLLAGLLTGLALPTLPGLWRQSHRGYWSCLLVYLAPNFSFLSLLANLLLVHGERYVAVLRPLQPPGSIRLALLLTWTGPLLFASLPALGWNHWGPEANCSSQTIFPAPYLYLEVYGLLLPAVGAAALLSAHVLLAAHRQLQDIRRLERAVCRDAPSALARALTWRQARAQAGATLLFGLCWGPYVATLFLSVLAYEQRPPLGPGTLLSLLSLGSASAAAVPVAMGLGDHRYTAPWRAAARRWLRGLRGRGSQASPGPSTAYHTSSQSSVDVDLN
Description: (§1) Alternatively, an assay under condition wherein forskolin was added to the assay buffer at the final concentration of 2 μM, was performed in the same way. […] After completion of incubation, the assay buffer was removed from each well. Then 50 μl of luminescent substrate for PicaGene LT2.0 (Toyo Ink) was added to each well.
(§2) The mixing ratio of these three plasmids is, where the total volume is 11 μl, appropriate for 1 to 6, preferably 1 to 3 of Gi.
(§3) For a positive control of reporter gene expression, forskolin (FSSK, 2 μM) was used.

[3] = target: T3, rat TGR5 (Rattus norvegicus, UniProt Q80T02); assay: CRE-luciferase reporter assay in CHO-mock cells co-expressing Gi and rat TGR5; assay type: cell-based; details: 10 μM bile acid, rat TGR5, versus group with no bile acid (Base)
T3 construct: expressed in transfected cells; host or cells: CHO-mock cells, transient, with Gi plasmid and reporter plasmid
T3 sequence (Q80T02 1-329): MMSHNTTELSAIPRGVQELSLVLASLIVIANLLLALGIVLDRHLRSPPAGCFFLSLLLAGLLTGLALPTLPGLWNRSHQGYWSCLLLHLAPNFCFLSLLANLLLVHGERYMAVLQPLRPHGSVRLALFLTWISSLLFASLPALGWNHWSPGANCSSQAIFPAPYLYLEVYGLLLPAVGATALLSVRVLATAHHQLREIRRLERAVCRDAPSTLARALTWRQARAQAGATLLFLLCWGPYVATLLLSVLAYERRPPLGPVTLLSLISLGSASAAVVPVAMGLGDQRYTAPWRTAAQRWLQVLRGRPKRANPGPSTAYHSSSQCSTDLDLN
Description: as §1, §2, §3

[4] = target: T4, mouse TGR5 (Mus musculus, UniProt Q80SS6); assay: CRE-luciferase reporter assay in CHO-mock cells co-expressing Gi and mouse TGR5; assay type: cell-based; details: 10 μM bile acid, mouse TGR5, versus group with no bile acid (Base)
T4 construct: expressed in transfected cells; host or cells: CHO-mock cells, transient, with Gi plasmid and reporter plasmid
T4 sequence (Q80SS6 1-329): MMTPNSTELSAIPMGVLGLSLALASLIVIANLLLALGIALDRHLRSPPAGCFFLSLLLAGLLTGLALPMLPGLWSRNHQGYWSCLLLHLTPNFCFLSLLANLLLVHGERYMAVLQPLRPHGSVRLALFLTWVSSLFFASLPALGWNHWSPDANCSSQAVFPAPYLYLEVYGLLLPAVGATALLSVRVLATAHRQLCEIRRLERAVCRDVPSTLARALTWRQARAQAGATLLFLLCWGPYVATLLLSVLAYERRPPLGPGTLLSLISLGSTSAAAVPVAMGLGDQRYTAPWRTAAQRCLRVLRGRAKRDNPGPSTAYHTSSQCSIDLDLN
Description: as §1, §2, §3

[5] = target: T5, bovine TGR5 (Bos taurus, UniProt Q862A9); assay: CRE-luciferase reporter assay in CHO-mock cells co-expressing Gi and bovine TGR5; assay type: cell-based; details: 10 μM bile acid, bovine TGR5, versus group with no bile acid (Base)
T5 construct: expressed in transfected cells; host or cells: CHO-mock cells, transient, with Gi plasmid and reporter plasmid
T5 sequence (Q862A9 1-329): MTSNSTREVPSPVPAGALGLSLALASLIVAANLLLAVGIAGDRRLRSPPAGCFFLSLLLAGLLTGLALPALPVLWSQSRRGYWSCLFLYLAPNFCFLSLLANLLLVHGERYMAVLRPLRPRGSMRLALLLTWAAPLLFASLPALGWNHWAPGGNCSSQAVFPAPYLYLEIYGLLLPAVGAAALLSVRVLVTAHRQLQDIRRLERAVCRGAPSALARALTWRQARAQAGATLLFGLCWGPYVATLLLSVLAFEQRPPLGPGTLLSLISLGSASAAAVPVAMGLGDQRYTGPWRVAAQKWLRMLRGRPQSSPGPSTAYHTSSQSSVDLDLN
Description: as §1, §2, §3

[6] = target: T1, TGR5; assay: CRE-luciferase reporter assay in CHO-mock cells co-expressing Gi and human TGR5; assay type: cell-based; set-up: expressed in transfected cells; host or cells: CHO-mock cells (CHO(dhfr-) transformed with pAKKO-111H), transient, with Gi plasmid and reporter plasmid; details: 10 μM bile acid, human TGR5, versus group with no bile acid (Base)
Description: as §1, §2, §3

[7] = system: rabbit alveolus macrophage; assay: Phagocytotic activity of rabbit alveolus macrophage (yeast uptake, fuchsin staining); details: 100 μM, 16 hours
Description: From rabbit (NZW, female, approximately 2.5 to 3.0 kg of weight), under anesthesia, serum and lung were collected. By washing with PBS (phosphate-buffered saline) transfused through trachea, suspension containing alveolus macrophage in the lung was recovered. After washing the obtained cells with further PBS, the cells were suspended in medium (DMEM supplemented with 2% FBS, 0.1 mM non-essential amino acids, 50 μg/ml streptomycin, 50 U/ml penicillin and 50 μg/ml gentamicin; any component from GibcoBRL), loaded on Ficoll-Paque Plus (Amersham Pharmacia), isolator for mononuclear cells, and treated with centrifugation to remove erythrocyte. […] Then the cells were further cultured for 16 hours. Fifty μl of serum obtained from the same rabbit, and 0.8×10^8/ml of yeast suspension sterilized by heating, were added to the culture. Subsequently, the cell were cultured under 5% CO2 for 40 minutes. After adding 60 μl of 0.1% fuchsin solution (Wako Pure Chemicals) to the culture, the cells were peeled and were centrifuged. The suspension was observed by microscope.

Row | SMILES | cAMP production [1] | luciferase activity (reporter gene expression level) [2] | luciferase activity (reporter gene expression level) [3] | luciferase activity (reporter gene expression level) [4] | luciferase activity (reporter gene expression level) [5] | luciferase activity (reporter gene expression level) [6] | phagocytotic activity of macrophage [7]
1 | C[C@H](CCC(=O)O)[C@H]1CC[C@H]2[C@@H]3[C@H](O)C[C@@H]4C[C@H](O)CC[C@]4(C)[C@H]3C[C@H](O)[C@]12C [CA, cholic acid] | increase of cAMP production, which is dependent on concentration |  |  |  |  |  | 
2 | C[C@H](CCC(=O)O)[C@H]1CC[C@H]2[C@@H]3[C@H](O)C[C@@H]4C[C@H](O)CC[C@]4(C)[C@H]3CC[C@]12C [CDCA, chenodeoxycholic acid] | increase of cAMP production, which is dependent on concentration | higher luciferase activity than that of a group with no bile acid | higher luciferase activity than that of a group with no bile acid | higher luciferase activity than that of a group with no bile acid | higher luciferase activity than that of a group with no bile acid | higher luciferase activity than that of a group with no bile acid | 
3 | C[C@H](CCC(=O)NCC(=O)O)[C@H]1CC[C@H]2[C@@H]3CC[C@@H]4C[C@H](O)CC[C@]4(C)[C@H]3CC[C@]12C [GLCA, glycolithocholic acid] |  |  |  |  |  |  | significantly decreased
